# In patent US9932637B2, “Genetic polymorphisms associated with cardiovascular disorders and drug response, methods of detection and uses thereof” (CELERA CORPORATION, priority 2003, dated 2018):
# Tested on: patients with prior myocardial infarction (CARE study)
# Assay: CARE: association of SNPs with pravastatin treatment in cardiovascular events prevention (logistic regression, odds ratio pravastatin vs placebo by genotype; Table 8)
# Format: in vivo, human
# Conditions: for Prava vs. Placebo Odds Ratio, 0 Rare Alleles / Prava vs. Placebo Odds Ratio, 1 Rare Alleles / Prava vs. Placebo Odds Ratio, 2 Rare Alleles: SELP hCV11975296; for Prava vs. Placebo Odds Ratio, 0 Rare Alleles / Prava vs. Placebo Odds Ratio, 1 Rare Alleles / Prava vs. Placebo Odds Ratio, 2 Rare Alleles / Odds ratio pravastatin vs placebo: All Patients; for Any Report of Stroke During CARE, n/total (%) / Fatal/Non-fatal Cerebrovascular Disease, n/total (%): SERPINA1 hCV1260328, All Patients; for Coronary Artery Bypass Graft, n/total (%): SERPINA1 hCV25640505, All Patients; for Fatal/Nonfatal Atherosclerotic CV Disease, n/total (%): SERPINB6 hCV16190893, All Patients; for Fatal CHD/Definite Non-fatal MI, n/total (%): TAP1 hCV549926, All Patients
# Source text: In order to identify genetic markers associated with acute coronary events (e.g. MI, stroke, unstable angina, congestive heart failure, etc.) or response to statin treatment for the prevention of coronary events, samples from the Cholesterol and Recurrent Events (CARE) study (a randomized multicentral double-blinded trial on secondary prevention of acute coronary events with pravastatin) (Sacks et al., 1991, Am. J. Cardiol. 68: 1436-1446) were genotyped. A well-documented myocardial infarction (MI) was one of the enrollment criteria for entry into the CARE study. Patients were enrolled in the CARE trial from 80 participating study centers. […] Patients were randomized to receive either 40 mg of pravastatin once daily or a matching placebo. The primary endpoint of the trial was death from coronary heart disease and the median duration of follow-up was 5.0 years (range, 4.0 to 6.2 years). […] Secondary endpoints of other related cardiovascular or metabolic disease events, and changes in clinical variables were also recorded in pravastatin-treated and placebo groups. All individuals included in the study had signed a written informed consent form and the study protocol was approved by the respective Institutional Review Boards (IRBs).
# For genotyping SNPs in CARE patient samples, DNA was extracted from blood samples using conventional DNA extraction methods such as the QIA-amp kit from Qiagen. Genotypes were obtained on an ABI PRISM® 7900HT Sequence Detection PCR system (Applied Biosystems, Foster City, Calif.) by kinetic allele-specific PCR, similar to the method described by Germer et al. (Germer S., Holland M. J., Higuchi R. 2000, Genome Res. 10: 258-266).
# Statistical analysis for association of SNPs with pravastatin treatment in cardiovascular events prevention (Table 8) was carried out using an overall logistic regression model that included an intercept, a parameter for the effect of a genotype containing two rare alleles versus a genotype containing no rare alleles, a parameter for the effect of a genotype containing one rare allele versus a genotype containing no rare alleles, a parameter for the effect of use of pravastatin versus the use of placebo, and parameters for the interaction effects between SNP genotypes and pravastatin use. The test of the overall model is a chi-square test with two degrees of freedom for analyses containing all three genotypes, and one degree of freedom for analyses containing two genotypes.
# Effect sizes were estimated through odds ratios (pravastatin group versus placebo) for carriers of each genotype (groups of 0, 1, and 2 minor allele carriers). The effect was considered to be significant if p-value for testing whether any of the interactions between SNP genotypes and pravastatin use were <0.05. […] Odds ratios less than one indicate that the specific SNP allele has a protective effect and odds ratios greater than one indicate that the specific SNP allele has an adverse effect.
# [1] = SELP hCV11975296, All Patients, 2 Rare Alleles, Prava arm
# [2] = Coronary Artery Bypass or Revascularization
# [3] = Hosp. for Cardiovascular Disease
# [4] = SN hCV25623265, All Patients, 0 Rare Alleles, Prava arm
# [5] = SN hCV25623265, All Patients, 1 Rare Allele, Prava arm
# [6] = SN hCV25623265, All Patients, 2 Rare Alleles, Prava arm
# [7] = TGFB1 hCV8708473, All Patients, 0 Rare Alleles, Prava arm
structure (smiles),measurement,setting,value
CC[C@H](C)C(=O)O[C@H]1C[C@H](O)C=C2C=C[C@H](C)[C@H](CC[C@@H](O)C[C@@H](O)CC(=O)O)[C@H]21 [pravastatin],"Coronary Artery Bypass or Revascularization, n/total (%)",[1],(20.3%)
same,"Hosp. for Cardiovascular Disease, n/total (%)",[1],(49.2%)
same,"Hosp. for Unstable Angina, n/total (%)",[1],(27.1%)
same,"Prava vs. Placebo Odds Ratio, 0 Rare Alleles",[2],0.68
same,"Prava vs. Placebo Odds Ratio, 1 Rare Alleles",[2],0.63
same,"Prava vs. Placebo Odds Ratio, 2 Rare Alleles",[2],5.74
same,"Prava vs. Placebo Odds Ratio, 0 Rare Alleles",[3],0.81
same,"Prava vs. Placebo Odds Ratio, 1 Rare Alleles",[3],0.62
same,"Prava vs. Placebo Odds Ratio, 2 Rare Alleles",[3],1.71
same,"Prava vs. Placebo Odds Ratio, 0 Rare Alleles",Hosp. for Unstable Angina,0.82
same,"Prava vs. Placebo Odds Ratio, 1 Rare Alleles",Hosp. for Unstable Angina,0.69
same,"Prava vs. Placebo Odds Ratio, 2 Rare Alleles",Hosp. for Unstable Angina,5.45
same,"Any Report of Stroke During CARE, n/total (%)","0 Rare Alleles, Prava arm",(2.9%)
same,"Fatal/Non-fatal Cerebrovascular Disease, n/total (%)","0 Rare Alleles, Prava arm",(5.9%)
same,"Any Report of Stroke During CARE, n/total (%)","1 Rare Allele, Prava arm",(1.2%)
same,"Fatal/Non-fatal Cerebrovascular Disease, n/total (%)","1 Rare Allele, Prava arm",(2.8%)
same,"Any Report of Stroke During CARE, n/total (%)","2 Rare Alleles, Prava arm",(1.4%)
same,"Fatal/Non-fatal Cerebrovascular Disease, n/total (%)","2 Rare Alleles, Prava arm",(2.7%)
same,Odds ratio pravastatin vs placebo,"SERPINA1 hCV1260328, Any Report of Stroke During CARE, 0 rare alleles",0.87
same,Odds ratio pravastatin vs placebo,"SERPINA1 hCV1260328, Any Report of Stroke During CARE, 1 rare allele",0.23
same,Odds ratio pravastatin vs placebo,"SERPINA1 hCV1260328, Any Report of Stroke During CARE, 2 rare alleles",0.21
same,Odds ratio pravastatin vs placebo,"SERPINA1 hCV1260328, Fatal/Non-fatal Cerebrovascular Disease, 0 rare alleles",1.03
same,Odds ratio pravastatin vs placebo,"SERPINA1 hCV1260328, Fatal/Non-fatal Cerebrovascular Disease, 1 rare allele",0.36
same,Odds ratio pravastatin vs placebo,"SERPINA1 hCV1260328, Fatal/Non-fatal Cerebrovascular Disease, 2 rare alleles",0.17
same,"Coronary Artery Bypass Graft, n/total (%)","0 Rare Alleles, Prava arm",(6.1%)
same,"Coronary Artery Bypass Graft, n/total (%)","1 Rare Allele, Prava arm",(9.0%)
same,"Coronary Artery Bypass Graft, n/total (%)","2 Rare Alleles, Prava arm",(7.4%)
same,"Fatal/Nonfatal Atherosclerotic CV Disease, n/total (%)","0 Rare Alleles, Prava arm",(34.9%)
same,"Fatal/Nonfatal Atherosclerotic CV Disease, n/total (%)","1 Rare Allele, Prava arm",(32.4%)
same,"Fatal/Nonfatal Atherosclerotic CV Disease, n/total (%)","2 Rare Alleles, Prava arm",(29.7%)
same,"Coronary Artery Bypass or Revascularization, n/total (%)",[4],(13.0%)
same,"Definite Nonfatal MI, n/total (%)",[4],(8.2%)
same,"Fatal CHD/Definite Nonfatal MI, n/total (%)",[4],(9.7%)
same,"Percutaneous Transluminal Coronary Angioplas, n/total (%)",[4],(7.5%)
same,"Total Coronary Heart Disease Events, n/total (%)",[4],(27.2%)
same,"Coronary Artery Bypass or Revascularization, n/total (%)",[5],(14.9%)
same,"Definite Nonfatal MI, n/total (%)",[5],(7.6%)
same,"Fatal CHD/Definite Nonfatal MI, n/total (%)",[5],(10.8%)
same,"Percutaneous Transluminal Coronary Angioplas, n/total (%)",[5],(9.5%)
same,"Total Coronary Heart Disease Events, n/total (%)",[5],(30.5%)
same,"Coronary Artery Bypass or Revascularization, n/total (%)",[6],(15.0%)
same,"Definite Nonfatal MI, n/total (%)",[6],(2.8%)
same,"Fatal CHD/Definite Nonfatal MI, n/total (%)",[6],(4.6%)
same,"Percutaneous Transluminal Coronary Angioplas, n/total (%)",[6],(9.8%)
same,"Total Coronary Heart Disease Events, n/total (%)",[6],(28.2%)
same,"Fatal CHD/Definite Non-fatal MI, n/total (%)","0 Rare Alleles, Prava arm",(10.0%)
same,"Fatal CHD/Definite Non-fatal MI, n/total (%)","1 Rare Allele, Prava arm",(8.2%)
same,"Fatal CHD/Definite Non-fatal MI, n/total (%)","2 Rare Alleles, Prava arm",(4.1%)
same,Odds ratio pravastatin vs placebo,"TAP1 hCV549926, Fatal CHD/Definite Non-fatal MI, 0 rare alleles",0.85
same,Odds ratio pravastatin vs placebo,"TAP1 hCV549926, Fatal CHD/Definite Non-fatal MI, 1 rare allele",0.54
same,Odds ratio pravastatin vs placebo,"TAP1 hCV549926, Fatal CHD/Definite Non-fatal MI, 2 rare alleles",0.16
same,"Any Report of Stroke Prior to or During CARE, n/total (%)",[7],(7.5%)
same,"Cardiovascular Mortality, n/total (%)",[7],(5.5%)
same,"Fatal Atherosclerotic Cardiovascular Disease, n/total (%)",[7],(5.4%)
same,"Fatal Coronary Heart Disease, n/total (%)",[7],(5.1%)
same,"Fatal/Non-fatal Atherosclerotic CV Disease, n/total (%)",[7],(37.2%)
same,"Total Coronary Heart Disease Events, n/total (%)",[7],(32.1%)
same,"Total Mortality, n/total (%)",[7],(7.2%)
